Test results from BigSolDB 2.1.

Cc1ncc(CO)c(CO)c1O.Cl
solubility (mole fraction)
Conditions	278.15 K	283.15 K	288.15 K	293.15 K	298.15 K	303.15 K	308.15 K	313.15 K
in ethanol	0.000447	0.000484	0.000557	0.000651	0.000801	0.000989	0.00118	0.00143
in methanol	0.00221	0.00253	0.0028	0.00329	0.00373	0.00425	0.00486	0.00549
in water	0.0105	0.0123	0.0144	0.0168	0.0191	0.022	0.025	0.0286
